Reference: US20040110771A1, “7-(r)-aminotriazolopyrimidines, the production thereof and use of the same for combatting phytopathogenic fungi” (priority 2000, published 2004)

Key:
Format in all cases: in vivo
Septoria tritici = assay: Protective activity against Septoria foliar blotch disease of wheat caused by Septoria tritici; conditions: wheat seedlings "Riband", inoculated 24 h after spraying, 2 weeks
Method: The active compounds were prepared separately or jointly as a 10% strength emulsion in a mixture of 70% by weight of cyclohexanone, 20% by weight of Nekanil® LN (Lutensol® AP6, wetting agent having emulsifying and dispersing action based on ethoxylated alkylphenols) and 10% by weight of Wettol® EM (nonionic emulsifier based on ethoxylated castor oil) and diluted with water to the desired concentration.
Leaves of potted wheat seedlings of the cultivar “Riband” were sprayed to runoff point with an aqueous preparation of active compound which had been prepared from a stock solution made of 10% of active compound, 85% of cyclohexanone and 5% of emulsifier. 24 hours after the spray coating had dried on, they were inoculated with an aqueous spore suspension of Septoria tritici. The suspension contained 2.0×10^6 spores/ml. The test plants were then placed in a greenhouse at 18-22° C. and a relative atmospheric humidity of close to 100%. After 2 weeks, the extent of the development of the disease was determined visually in % infection of the entire leaf area.

[1] = system: Blumeria graminis forma specialis tritici; assay: Activity against mildew of wheat caused by Blumeria graminis forma specialis tritici; conditions: wheat seedlings "Kanzler", dusted with spores 24 h after spraying, 7 days
Procedure, shortened: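 Compound, emulsified then diluted in water, sprayed to runoff onto leaves of potted wheat seedlings cv. Kanzler; inoculated with Blumeria graminis f. sp. tritici spores 24 h after the coating dried. Plants kept in greenhouse at 20-24° C., 60-90% relative humidity; mildew scored visually after 7 days as % infected leaf area.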

Pyrenophora teres = assay: Activity against net blotch of barley caused by Pyrenophora teres; conditions: barley seedlings "Igri", inoculated 24 h after spraying, 6 days
Procedure, shortened: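 Potted barley seedlings (cv. Igri) were sprayed to runoff with aqueous compound preparation, then inoculated with P. teres spores 24 h after the spray dried. Plants were kept in a greenhouse at 20-24° C and 95-100% relative humidity, and disease was scored visually after 6 days as % infected leaf area.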

Puccinia recondita = assay: Curative activity against brown rust of wheat caused by Puccinia recondita; conditions: curative spray 24 h after inoculation, wheat seedlings "Kanzler", 7 days
Procedure, shortened: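 Wheat seedlings (cv. Kanzler) inoculated with brown rust spores and held 24 h at 90–95% humidity and 20–22°C, then sprayed to runoff with the emulsified compound the next day. Rust development on leaves scored after 7 days in greenhouse at 20–22°C and 65–70% relative humidity.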

| SMILES | % infection of the leaves after application of an aqueous preparation comprising . . . ppm of active compound (Septoria tritici; 16 ppm) | % infection of the leaves after application of an aqueous preparation comprising . . . ppm of active compound (Septoria tritici; 63 ppm) | % infection of the leaves after application of an aqueous preparation comprising . . . ppm of active compound (Septoria tritici; 250 ppm) | % infection of the leaves after application of an aqueous preparation comprising . . . ppm of active compound ([1]; 16 ppm) | % infection of the leaves after application of an aqueous preparation comprising . . . ppm of active compound ([1]; 63 ppm) | % infection of the leaves after application of an aqueous preparation comprising . . . ppm of active compound ([1]; 250 ppm) | % infection of the leaves after application of an aqueous preparation comprising . . . ppm of active compound (Pyrenophora teres; 16 ppm) | % infection of the leaves after application of an aqueous preparation comprising . . . ppm of active compound (Pyrenophora teres; 63 ppm) | % infection of the leaves after application of an aqueous preparation comprising . . . ppm of active compound (Pyrenophora teres; 250 ppm) | % infection of the leaves after application of an aqueous preparation comprising . . . ppm of active compound (Puccinia recondita; 16 ppm) | % infection of the leaves after application of an aqueous preparation comprising . . . ppm of active compound (Puccinia recondita; 63 ppm) | % infection of the leaves after application of an aqueous preparation comprising . . . ppm of active compound (Puccinia recondita; 250 ppm) |
| --- | --- | --- | --- | --- | --- | --- | --- | --- | --- | --- | --- | --- |
| CC(C)[C@@H](C)Nc1c(-c2c(F)c(F)c(F)c(F)c2F)c(Cl)nc2ncnn12 [I.-20] | 10% | 10% | 10% | 30% | 20% | 5% | 30% | 10% | 0% | – | – | – |
| CC(C)C(C)Nc1c(-c2c(F)cccc2Cl)c(Cl)nc2ncnn12 [comparison (S)-amine of I.-2] | 90% | 90% | 90% | – | 100% | 100% | – | – | – | 100% | 100% | 100% |
| CC[C@H](C)Nc1c(-c2c(F)cccc2F)c(Cl)nc2ncnn12 [comparison (S)-amine of I.-4] | 100% | 100% | 90% | 100% | 100% | 100% | – | – | – | 100% | 100% | 100% |
| CC[C@H](C)Nc1c(-c2c(F)cc(OC)cc2F)c(Cl)nc2ncnn12 [comparison (S)-amine of I.-16] | – | 90% | 90% | 100% | 100% | 100% | – | – | – | 100% | 5% | – |
| CC[C@H](C)Nc1c(-c2c(F)c(F)c(F)c(F)c2F)c(Cl)nc2ncnn12 [comparison (S)-amine of I.-19] | 90% | 90% | 90% | – | 30% | 30% | – | – | 80% | – | – | – |
| CC(C)[C@H](C)Nc1c(-c2c(F)c(F)c(F)c(F)c2F)c(Cl)nc2ncnn12 [comparison (S)-amine of I.-20] | 90% | 90% | 90% | 80% | 40% | 40% | 100% | 40% | 7% | – | – | – |
